Source: patent US12491207B2, “Article of manufacture comprising local anesthetic, buffer, and glycosaminoglycan in syringe with improved stability” (Vaneltix Pharma, Inc., priority 2017, dated 2025)
Counter-ions that a name gives are not always drawn.

Assay: Loss of lidocaine HCl on sterilization and storage in glass or plastic containers
Assay type: physicochemical
Method: This composition was packaged in 20-mL cyclic olefin polymer (COP) and polypropylene (PP) syringes; the polypropylene was not non-nucleated. Storage conditions were, as indicated below, either 25° C./60% relative humidity (RH) or 40° C./75% RH.
Testing points were as follows: at the initiation of the stability study, after 1 month, 2 months, 3 months, 6 months, and 12 months.
Additionally, the syringe parts (the plunger and the syringe body) were analyzed for leachables.

SMILES: CCN(CC)CC(=O)Nc1c(C)cccc1C [lidocaine hydrochloride]
- loss of lidocaine hydrochloride after sterilization (FIG. 9) (glass vials, 80 mM phosphate buffer): small loss
- loss of lidocaine hydrochloride after sterilization (FIG. 9) (glass vials, different phosphate buffer molarities except 80 mM): no loss
- loss of lidocaine hydrochloride after sterilization (FIG. 9) (plastic syringes, increasing with phosphate buffer molarity): significant loss
